{"source": "patent US20080234345A1", "about": "“METHOD FOR REDUCING OR ALLEVIATING INFLAMMATION IN THE DIGESTIVE TRACT” (Gene Logic Inc., priority 2006, published 2008)", "key": {"[1]": {"test_system": "NF-κB dependent transcription", "assay": "LPS induced NF-κB dependent transcription in extracted organs of NF-κB::Luc mice (luciferase lysate assay)", "type": "in vivo", "conditions": "GL1001 30 mg/kg, LPS 0.5 mg/kg, vs LPS alone", "text": "For luciferase assays, organs were extracted and snap frozen in liquid nitrogen. AII tissue samples were placed in lysis buffer with inhibitors (Passive Lysis Buffer (Promega) and Complete Mini Protease Inhibitor Cocktail (Roche, Indianapolis, Ind.)), and were homogenized using a tissue homogenizer (Handishear, Hand-held homogenizer, VirTis, Gardiner, N.Y.). Tissue homogenates were centrifuged and clarified lysates were used for luminometer assays and western blots. For the luminometer assays, Luciferase Assay Substrate (Luciferase Assay System, Promega) was prepared as indicated by the manufacturer and placed in disposable cuvettes. […] Background luminescence readings were obtained and the background readings were subtracted from the luminescent data. Protein concentrations were determined using the BCA Protein Assay Kit (Pierce, Rockford, Ill.) following the manufacturer's protocols and analyzed using a VERSAmax tunable microplate reader and associated Softmax Pro version 3.1.2 software (Molecular Devices, Sunnyvale Calif.). The luminescence for each of the protein lysates was calculated as arbitrary units of light per microgram of protein. […]\nGL1001 was further tested for in vivo anti-inflammatory activity by examining its effects on bacterial LPS induced NF-κB dependent transcription, in NF-κB::Luc mice. […] Luciferase signal was quantitated from several regions of interest. […]"}, "[2]": {"test_system": "NF-κB dependent transcription", "assay": "In vivo basal NF-κB dependent transcription in NF-κB::Luc reporter mice, abdominal imaging", "conditions": "4 hours", "text": "GL1001 was further tested for in vivo anti-inflammatory activity by examining its effects on basal levels of NF-κB dependent transcription in mice engineered in the germline with a construct containing an NF-κB enhancer linked to a luciferase gene (i.e., NF-κB::Luc mice), such that this NF-κB reporter construct is present in all cells of the mice.\nMore particularly, transgenic NF-κB::Luc mice were generated using three NF-κB response elements from the Igκ light chain promoter fused to a firefly luciferase gene as described by Carlsen et al. (2002) J. Immunol. 168:1441-1446. Pronuclear microinjection of purified construct DNA was used to generate transgenic founders in the C57BL/6 XCBA/J background. Founders were subsequently back crossed to the C57BL/6 albino background. […] Signal data were also quantitated and archived using the Living Image® software. Photons of light were quantitated using an oval region of interest (ROI) of varying sizes depending on the procedure, as described further below.\nTo test for in vivo effects of GL1001 on basal levels of NF-κB dependent transcription, male NF-κB::Luc mice were subjected to quantitative in vivo imaging of the abdominal area (using a fixed ROI of 2.76×3.7 cm) as described above, immediately before, and at 2, […]"}, "[3]": {"test_system": "NF-κB dependent transcription", "assay": "In vivo LPS induced NF-κB dependent transcription in NF-κB::Luc mice, abdominal imaging", "text": "More particularly, transgenic NF-κB::Luc mice were generated using three NF-κB response elements from the Igκ light chain promoter fused to a firefly luciferase gene as described by Carlsen et al. (2002) J. Immunol. 168:1441-1446. Pronuclear microinjection of purified construct DNA was used to generate transgenic founders in the C57BL/6 XCBA/J background. Founders were subsequently back crossed to the C57BL/6 albino background. All experimental protocols were approved by the Institutional Animal Care and Use Committee and conform to the ILAR guide for the care and used of laboratory animals. For in vivo imaging, NF-κB::Luc mice were injected intraperitoneally with luciferin (150 mg/kg) 10 minutes before imaging, anesthetized (using 1-3% isoflurane) and placed into a light-tight camera box. […] Signal data were also quantitated and archived using the Living Image® software. Photons of light were quantitated using an oval region of interest (ROI) of varying sizes depending on the procedure, as described further below.\nGL1001 was further tested for in vivo anti-inflammatory activity by examining its effects on bacterial LPS induced NF-κB dependent transcription, in NF-κB::Luc mice. […] Mice were subjected to quantitative abdominal imaging at 2, 4 and 6 h following LPS administration, as described above. […] Luciferase signal was quantitated from several regions of interest. […]"}, "[4]": {"test_system": "DSS-induced colitis in Balb/c mice", "assay": "DSS-induced colitis in Balb/c mice (Example 7)", "type": "in vivo", "conditions": "s.c. b.i.d., GL1001 300 mg/kg", "method": "A study was designed with six groups of Balb/c mice: naïve control, DSS followed by vehicle, DSS followed by GL1001 30 mg/kg/day, DSS followed by GL1001 100 mg/kg/day, DSS followed by GL1001 300 mg/kg/day, and DSS followed by sulfasalazine 150 mg/kg/day. Administration of DSS was via drinking water, from day 1 to day 6 of the study. […] Administration of vehicle, GL1001 and sulfasalazine was subcutaneous, twice daily, from day 6 until termination of the study (day 16).\nBody weight of each animal was measured at days 1, 3 and 5 (pre-initiation of GL1001 or sulfasalazine treatment) and at days 7, 9, 11 and 13 (post-initiation of GL1001 or sulfasalazine treatment). On these same days, disease activity measurements were recorded, including: • (a) rectal prolapse (0=no prolapse, 1=partial prolapse, 2=moderate prolapse, 3=full prolapse); • (b) stool consistency (0=solid pellet, 1=semi-solid, 2=soft stool, 3=diarrhea); and • (c) fecal occult blood (0=no blood present, 1=occult blood, 2=gross blood).\nAt termination of the study, colon length was determined and histological analysis was conducted as in Example 6."}}}
{"smiles": "CC(C)C[C@H](N[C@@H](Cc1cncn1Cc1cc(Cl)cc(Cl)c1)C(=O)O)C(=O)O", "note": "[GL1001, (S,S)-2-[1-carboxy-2-[3-(3,5-dichlorobenzyl)-3H-imidazol-4-yl]-ethylamino]-4-methylpentanoic acid]", "values": [{"measurement": "LPS induced NF-κB signaling in pancreas and uterus, or any other organ analyzed", "setting": "[1]", "value": "no statistically significant decrease"}, {"measurement": "reduction of LPS induced NF-κB-dependent transcription in stomachs", "setting": "[1]", "value": "about 37 fold"}, {"measurement": "inhibition of basal in vivo levels of NF-κB dependent transcription in abdominal ROI", "setting": "[2]; 300 mg/kg subcutaneous, p<0.01", "value": "over 40%"}, {"measurement": "inhibition of basal in vivo levels of NF-κB dependent transcription in abdominal ROI", "setting": "[2]; both lower doses, subcutaneous", "value": "lesser but still significant extents"}, {"measurement": "LPS induced NF-κB signaling response, abdominal region", "setting": "[3]; GL1001 30, 100, 300 mg/kg s.c. 1 hour before LPS i.v. (FIG. 4)", "value": "significantly reduced"}, {"measurement": "LPS induced NF-κB signaling", "setting": "[3]; at 30 and 100 mg/kg, dose range 3-100 mg/kg (FIG. 5)", "value": "significantly reduced"}, {"measurement": "fecal occult blood", "setting": "[4]; day 7, sulfasalazine 150 mg/kg", "value": "reduces"}, {"measurement": "stool consistency", "setting": "[4]; day 7, sulfasalazine 150 mg/kg", "value": "reduces"}, {"measurement": "percentage weight loss", "setting": "[4]; day 9, sulfasalazine 150 mg/kg", "value": "reduces"}, {"measurement": "rectal prolapse", "setting": "[4]; day 9, sulfasalazine 150 mg/kg", "value": "reduces"}, {"measurement": "distal colon erosion score", "setting": "[4]", "value": "reduces"}, {"measurement": "distal colon crypt score", "setting": "[4]; sulfasalazine 150 mg/kg", "value": "reduces"}, {"measurement": "distal colon inflammation score", "setting": "[4]; sulfasalazine 150 mg/kg", "value": "reduces"}, {"measurement": "distal colon total histopathology score", "setting": "[4]; sulfasalazine 150 mg/kg", "value": "reduces"}, {"measurement": "reduction in colon length", "setting": "[4]; sulfasalazine 150 mg/kg", "value": "inhibits reduction"}]}
